In brackets after ≈: the same amount, converted by molar mass.
Tests used:
Thromboxane B2 = conditions: in 5 minutes of post bolus injection; 5 ml of 100 mg/ml ASA injected in less than 2 minutes; cited from earlier work
[1] = cited from earlier work
physchem = assay: physchem
Method: The batch volume was made up to 100 ml with addition of 70/30 TBA/water. […] 5 ml aliquots were placed in flint vials and lyophilized. Upon completion of lyophilization, the contents of the vial were reconstituted with 5 ml of Water for Injection.

[2] = Reconstitution of ASA lyophile with various basifying agents; type: physicochemical; conditions: basifying agent diluents of examples 13 and 14, without polysorbate 80
Method: One aspect of this invention was to produce a stable lyophilized product and a solvent system with sufficient bulk solution stability to withstand an aseptic processing and lyophilization process. The lyophilized products we have manufactured in most of these studies were made with 80% TBA/20% to 60% TBA/40% water solvent system and the bulk solution for lyophilization stable for 24 hours with minimal degradation. We have achieved this goal. […] The reconstitution studies were done by reconstituting a 100 mg vial with 5 ml of solution containing a buffer or a basifying agent or a combination of both.

[3] = oral tablets; cited from earlier work
[4] = Bulk solution stability of Example 3C at 25° C.; type: physicochemical
Method: All three solutions were filtered and 5 ml each placed in a Type I flint vials and lyophilized. […] The lyophilized cakes in all vials were shrunken and collapsed. […] Since lyophilization of the ASA-lysine solution was carried out at about −30° C., all water was removed by sublimation at this low temperature. It is not known whether degradation took place during the lyophilization or during the preparation of the bulk solution or combination of both. Therefore, we have investigated the bulk solution stability of example 3C at 25° C.

platelet aggregation = conditions: following oral dosing; cited from earlier work
[5] = pH and appearance of bulk and reconstituted solutions of ASA co-lyophilized with bases in TBA/water; type: physicochemical; conditions: 20 mg/ml aspirin in 80% TBA/20 water
Description: The pH of the solution was raised to 6.5 using 1N sodium hydroxide. Phase separation was observed, probably due to salting out of inorganic base from TBA/Water system. In the next trial, we first raised the pH of the solution to 5.0 using 1N sodium hydroxide, and then sodium phosphate, dibasic to raise the pH to 6.5. Sodium phosphate, dibasic was used for a better control of pH. Since we still observed phase separation it appears that inorganic bases or buffers may not be compatible with a 80% TBA/20% water system. We may require more water, for example, 70% TBA/30% water in the system to dissolve the alkalinizing agents.
The reconstituted solution pH was 4.71.
In the next trial, we investigated incorporation of […] to facilitate complete neutralization. […] Arginine was, then, slowly added to the slurry to neutralize aspirin. […] The apparent pH of the bulk solution was 6.49. 5 ml aliquots placed in flint vials and lyophilized. Upon completion of lyophilization, the content of vial was reconstituted with 5 ml of Water for Injection. […] The reconstituted solution pH was 4.8.
Based on the above studies, it was evident that larger amount of base is needed to neutralize ASA in the preferred solvent system. To incorporate more base in the bulk solution, we explored use of 60/40 TBA/water system as solvent for lyophilization. […] The apparent pH of the bulk solution was 6.31. […]

[6] = intravenous vs oral; cited from earlier work
[7] = Tonicity and pH of reconstituted solutions of ASA; type: physicochemical
Description: Since the aspirin product will be administered via an IV bolus route, tonicity of the final reconstituted solution is acritical factor to avoid pain at the injection site.

## CC(=O)Oc1ccccc1C(=O)O.NCCCCC(N)C(=O)O [aspirin lysine salt]
Thromboxane B2
  Thromboxane B2 inhibited: greater than 95%
[1]; Bayer sterile dry powder product
  shelf life: one year

## NCCCC[C@H](N)C(=O)O [lysine]
physchem; organic solvent or mixture
  solubility: 2000 µg/mL (≈ 13.7 mM)

## o-acetylsalicylic acid [Aspirin]
[2]
  appearance of reconstituted solution: did not show any haziness
[3]
  initial onset of pain relief: about 30 minutes
[4]; 4 hours
  Area % of Salicylic Acid: about 9 Area %
[4]; Initial
  Area % of Salicylic Acid: about 3 Area %
Platelet aggregation
  onset of inhibition of platelet aggregation: approximately 40 minutes
[5]
  apparent pH of the bulk solution: 2.9
[1]; aqueous aspirin solution
  pH of the solution: about 2.5
[1]; concentrated aqueous bulk solution
  time to 10% of potency loss: about 1.3 hours
[1]; pH 2.5
  degradation rate: about 2 % per day
[6]
  effectiveness of intravenously administered solution versus orally administered equal amount: four times as high
[7]; 12 mg/mL Na2HPO4 and 27 mg/mL of Tris buffer with 0.05% Tween80, 10 mL, ASA 50 mg/mL
  Osmolality (m.Osm/Kg): 717 m.Osm/Kg
[7]; 17.5 mg/mL Tris Buffer with 0.05% Tween80, 20 mL, ASA 25 mg/mL
  Osmolality (m.Osm/Kg): 269 m.Osm/Kg
[7]; 20 mg/mL Na2HPO4 with 0.05% Tween80, 25 mL, ASA 20 mg/mL
  Osmolality (m.Osm/Kg): 481 m.Osm/Kg
[7]; 30 mg/mL of lysine and 7.5 mg/mL of Tris buffer, 20 mL, ASA 25 mg/mL
  Osmolality (m.Osm/Kg): 338 m.Osm/Kg
[7]; 34 mg/mL Tris Buffer with 0.05% Tween80, 10 mL, ASA 50 mg/mL
  Osmolality (m.Osm/Kg): 549 m.Osm/Kg
[7]; 34 mg/mL Tris Buffer, 10 mL, ASA 50 mg/mL
  Osmolality (m.Osm/Kg): 540 m.Osm/Kg
[7]; 40 mg/mL L-Lysine, 20 mL, ASA 25 mg/mL
  Osmolality (m.Osm/Kg): 380 m.Osm/Kg
[7]; 40 mg/mL of L-Lysine with 0.05% Tween80, 20 mL, ASA 25 mg/mL
  Osmolality (m.Osm/Kg): 388 m.Osm/Kg
[7]; 50 mg/mL Na2HPO4 with 0.05% Tween80, 10 mL, ASA 50 mg/mL
  Osmolality (m.Osm/Kg): 1172 m.Osm/Kg
[7]; 68 mg/mL Tris Buffer with 0.05% Tween80, 10 mL, ASA 100 mg/mL
  Osmolality (m.Osm/Kg): 1060 m.Osm/Kg
[7]; 68 mg/mL Tris Buffer with 0.05% Tween80, Aspirin API 1 g, 10 mL, ASA 100 mg/mL
  Osmolality (m.Osm/Kg): 1036 m.Osm/Kg

## tris(hydroxymethyl)aminomethane
physchem; 70/30 TBA/water, neat free base without ASA
  solubility: 5000 µg/mL
